# Where “and” joins values, the source holds several entries; their conditions need not be identical. Equal entries are not always repeated.
# Biological target: T1, LPA1R (Homo sapiens, UniProt Q92633)
# T1 construct: host or cells: LPA1R expressing cells (Millipore, GPCR Profiler)
# Test: LPA1R Ca2+ flux functional assay (antagonist mode, FLIPR)
# Assay type: cell-based
# Conditions: inhibition of LPA-stimulated Ca2+ flux, LPA at EC80, LPA1R expressing cells (Millipore); read-out: LPA1 R Antagonist Activity
# Procedure: Inhibition of LPA-stimulated Ca^2+ flux was used to assess compound potency using FLIPR technology in a 96 well plate format. The assay buffer used was a modified Hanks Balanced Salt Solution (HBSS) where HBSS was supplemented to contain 20 mM HEPES and 2.5 mM Probenecid at pH7.4 (Millipore, GPCR Profiler®). LPA1R expressing cells (Millipore) were plated and prepared 24 hours prior to assay of test articles. Ca^2+ ion flux was assessed from fluorescence of a Fluo-based No Wash Ca^2+ dye. Antagonist data are generated from plates with LPA concentrations sufficient to generate 80% efficacy [EC80]. Percentage inhibition was calculated from a reduction of efficacy according to concentration of compounds of Formula I-VI. For dose responses the inhibition data was used to calculate compound IC50. The agonist assay was conducted on a FLIPR^TETRA instrument where the test compound(s), vehicle controls, and reference agonist were added to the assay plate after a fluorescence baseline was established. The agonist assay was a total of 180 seconds and was used to assess each compound's ability to activate each GPCR assayed. Upon completion of the agonist assay, the assay plate was removed from the FLIPR^TETRA and incubated at 25° C. for seven (7) minutes. After the incubation period, the assay plate was placed back in the FLIPR^TETRA and the antagonist assay was initiated. Using EC80 potency values determined during the agonist assay, all pre-incubated sample compound wells were challenged with EC80 concentration of reference agonist after establishment of a fluorescence baseline. The antagonist assay was conducted using the same assay plate that was used for the agonist assay. The antagonist assay was conducted on a FLIPR^TETRA instrument where 9 vehicle controls and EC80 concentration of reference agonist were added to appropriate wells. The antagonist assay was a total of 180 seconds and was used to assess each compound's ability to inhibit each GPCR assayed. All assay plate data were subjected to appropriate baseline corrections. After baseline corrections were applied, maximum fluorescence values were exported and data processed to calculate percentage activation (relative to Emax reference agonist and vehicle control values), percentage inhibition (relative to EC80 and vehicle control values), and additional statistical values (i.e. Z′, percentage variation between replicate data values) to assess the quality of each plate. Where assay plate data were rejected, additional experiments were conducted. All dose response curves were generated using GraphPad Prism. The curves were fit by utilizing “Sigmoidal Dose Response (Variable Slope)” equation where the bottom parameter was fixed to “0.” Where appropriate, the top parameter was fixed to “100” to better predict potency values when a full curve was not generated by the concentrations assayed.
# T1 sequence (Q92633 whole entry): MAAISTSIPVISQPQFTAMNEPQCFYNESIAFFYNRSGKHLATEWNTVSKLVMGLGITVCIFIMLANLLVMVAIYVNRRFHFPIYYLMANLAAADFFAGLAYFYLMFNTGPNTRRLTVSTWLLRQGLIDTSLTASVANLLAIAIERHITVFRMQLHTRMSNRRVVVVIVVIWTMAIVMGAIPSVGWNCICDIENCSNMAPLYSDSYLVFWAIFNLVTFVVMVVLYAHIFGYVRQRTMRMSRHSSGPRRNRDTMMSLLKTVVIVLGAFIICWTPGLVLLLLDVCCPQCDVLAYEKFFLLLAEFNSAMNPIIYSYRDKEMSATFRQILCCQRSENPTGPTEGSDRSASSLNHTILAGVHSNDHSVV
row,Compound,IC50
1,"Cc1noc(-c2ccc(C(=O)N[C@H](Cc3ccc(C#N)cc3)C(=O)O)cc2)c1NC(=O)O[C@H](C)c1ccccc1Cl [Example 29, (R)-2-(4-{4-[(R)-1-(2-Chloro-phenyl)-ethoxycarbonylamino]-3-methyl-isoxazol-5-yl}-benzoylamino)-3-(4-cyano-phenyl)-propionic Acid]",1000 to 50000 nM
2,"Cc1cnn(-c2ccc(C(=O)N[C@H](Cc3ccccc3)C(=O)O)cc2)c1NC(=O)O[C@H](C)c1ccccc1Cl [Example 30, (R)-2-(4-{5-[(R)-1-(2-Chloro-phenyl)-ethoxycarbonylamino]-4-methyl-pyrazol-1-yl}-benzoylamino)-3-phenyl-propionic Acid]",> 50000 nM and 1000 to 50000 nM
3,"Cc1noc(-c2ccc(CN[C@H](CC3CC3)C(=O)O)cc2)c1NC(=O)O[C@H](C)c1ccccc1Cl [Example 41, (R)-2-(4-{4-[(R)-1-(2-Chloro-phenyl)-ethoxycarbonylamino]-3-methyl-isoxazol-5-yl}-benzylamino)-3-cyclopropyl-propionic Acid]",< 300 nM
4,"Cc1noc(-c2ccc(COC(Cc3ccccc3)C(=O)O)cc2)c1NC(=O)O[C@H](C)c1ccccc1 (stereo partly drawn) [Example 42, 2-{4-[3-Methyl-4-((R)-1-phenyl-ethoxycarbonylamino)-isoxazol-5-yl]-benzyloxy}-3-phenyl-propionic Acid]",< 300 nM
5,"Cc1noc(-c2ccc(COC(Cc3ccccc3)C(=O)O)cc2)c1NC(=O)O[C@H](C)c1ccccc1 (stereo partly drawn) [Example 43, 2-{4-[3-Methyl-4-((R)-1-phenyl-ethoxycarbonylamino)-isoxazol-5-yl]-benzyloxy}-3-phenyl-propionic Acid]",300 to 1000 nM
6,"CC(OC(=O)Nc1c(C#N)cnn1-c1ccc(-c2ccc(CC(=O)O)cc2)cc1)c1ccccc1Cl (stereo not shown) [Example 46, 2-[4-[4-[5-[1-(2-chlorophenyl)ethoxycarbonylamino]-4-cyano-pyrazol-1-yl]phenyl]phenyl]acetic Acid]",1000 to 50000 nM
7,"Cc1c(NC(=O)O[C@H](C)c2ccccc2)c(-c2ccc(-c3ccc(C4(C(=O)O)CC4)cc3)cc2)nn1C [Example 47, (R)-1-[4-[4-[1,5-dimethyl-4-(1-phenylethoxycarbonylamino)pyrazol-3-yl]phenyl]phenyl]cyclopropane Carboxylic Acid]",300 to 1000 nM
8,"Cc1nn(C)c(-c2ccc(-c3ccc(C4(C(=O)O)CC4)cc3)cc2)c1NC(=O)O[C@H](C)c1ccccc1 [Example 48, (R)-1-[4-[4-[2,5-dimethyl-4-(1-phenylethoxycarbonylamino)pyrazol-3-yl]phenyl]phenyl]cyclopropane Carboxylic Acid]",1000 to 50000 nM
9,"C[C@@H](OC(=O)Nc1c(F)cnn1-c1ccc(-c2ccc(C3(C(=O)O)CC3)c(F)c2)cc1)c1ccccc1Cl [Example 49, (R)-1-(4′-{5-[1-(2-Chloro-phenyl)-ethoxycarbonylamino]-4-fluoro-pyrazol-1-yl}-3-fluoro-biphenyl-4-yl)-cyclopropanecarboxylic Acid]",< 300 nM
10,"C[C@@H](OC(=O)Nc1c(F)cnn1-c1ccc(-c2ccc(C3(C(=O)O)CC3)cc2F)cc1)c1ccccc1Cl [Example 50, (R)-1-(4′-{5-[1-(2-Chloro-phenyl)-ethoxycarbonylamino]-4-fluoro-pyrazol-1-yl}-2-fluoro-biphenyl-4-yl)-cyclopropanecarboxylic Acid]",< 300 nM
11,"C[C@@H](OC(=O)Nc1c(F)cnn1-c1ccc(-c2ccc(C3(C(=O)O)CC3)cc2Cl)cc1)c1ccccc1Cl [Example 51, (R)-1-(2-Chloro-4′-{5-[1-(2-chloro-phenyl)-ethoxycarbonylamino]-4-fluoro-pyrazol-1-yl}-biphenyl-4-yl)-cyclopropanecarboxylic Acid]",< 300 nM
12,"Cc1cc(C2(C(=O)O)CC2)ccc1-c1ccc(-n2ncc(F)c2NC(=O)O[C@H](C)c2ccccc2Cl)cc1 [Example 52, (R)-1-(4′-{5-[1-(2-Chloro-phenyl)-ethoxycarbonylamino]-4-fluoro-pyrazol-1-yl}-2-methyl-biphenyl-4-yl)-cyclopropanecarboxylic Acid]",< 300 nM

# Now from value to molecule:
row,IC50,Compound
1,< 300 nM,"Cc1noc(-c2ccc(C(=O)N[C@H](Cc3ccccc3F)C(=O)O)cc2)c1NC(=O)O[C@H](C)c1ccccc1Cl [Example 26, (R)-2-(4-{4-[(R)-1-(2-Chloro-phenyl)-ethoxycarbonylamino]-3-methyl-isoxazol-5-yl}-benzoylamino)-3-(2-fluoro-phenyl)-propionic Acid]"
2,< 300 nM,"Cc1ccc(C[C@@H](NC(=O)c2ccc(-c3onc(C)c3NC(=O)O[C@H](C)c3ccccc3Cl)cc2)C(=O)O)cc1 [Example 27, (R)-2-(4-{4-[(R)-1-(2-Chloro-phenyl)-ethoxycarbonylamino]-3-methyl-isoxazol-5-yl}-benzoylamino)-3-p-tolyl-propionic Acid]"
3,< 300 nM,"Cc1noc(-c2ccc(C(=O)N[C@H](Cc3ccc(C(F)(F)F)cc3)C(=O)O)cc2)c1NC(=O)O[C@H](C)c1ccccc1Cl [Example 28, (R)-2-(4-{4-[(R)-1-(2-Chloro-phenyl)-ethoxycarbonylamino]-3-methyl-isoxazol-5-yl}-benzoylamino)-3-(4-trifluoromethyl-phenyl)-propionic Acid]"
4,< 300 nM,"Cc1noc(-c2ccc(CN[C@H](Cc3ccccc3)C(=O)O)cc2)c1NC(=O)O[C@H](C)c1ccccc1 [Example 31, (R)-2-{4-[3-Methyl-4-((R)-1-phenyl-ethoxycarbonylamino)-isoxazol-5-yl]-benzylamino}-3-phenyl-propionic Acid]"
5,< 300 nM,"Cc1noc(-c2ccc(CN[C@H](Cc3ccccc3F)C(=O)O)cc2)c1NC(=O)O[C@H](C)c1ccccc1 [Example 32, (R)-3-(2-Fluoro-phenyl)-2-{4-[3-methyl-4-((R)-1-phenyl-ethoxycarbonylamino)-isoxazol-5-yl]-benzylamino}-propionic Acid]"
6,< 300 nM,"Cc1noc(-c2ccc(CN[C@H](Cc3ccc(C(F)(F)F)cc3)C(=O)O)cc2)c1NC(=O)O[C@H](C)c1ccccc1 [Example 33, (R)-2-{4-[3-Methyl-4-((R)-1-phenyl-ethoxycarbonylamino)-isoxazol-5-yl]-benzylamino}-3-(4-trifluoromethyl-phenyl)-propionic Acid]"
7,< 300 nM,"Cc1noc(-c2ccc(CN[C@H](CC3CC3)C(=O)O)cc2)c1NC(=O)O[C@H](C)c1ccccc1 [Example 34, (R)-3-Cyclopropyl-2-{4-[3-methyl-4-((R)-1-phenyl-ethoxycarbonylamino)-isoxazol-5-yl]-benzylamino}-propionic acid]"
8,< 300 nM,"Cc1noc(-c2ccc(CN[C@H](Cc3ccccc3Cl)C(=O)O)cc2)c1NC(=O)O[C@H](C)c1ccccc1 [Example 35, (R)-3-(2-Chloro-phenyl)-2-{4-[3-methyl-4-((R)-1-phenyl-ethoxycarbonylamino)-isoxazol-5-yl]-benzylamino}-propionic Acid]"
9,< 300 nM,"Cc1noc(-c2ccc(CN[C@H](Cc3ccc(Cl)cc3)C(=O)O)cc2)c1NC(=O)O[C@H](C)c1ccccc1 [Example 36, (R)-3-(4-Chloro-phenyl)-2-{4-[3-methyl-4-((R)-1-phenyl-ethoxycarbonylamino)-isoxazol-5-yl]-benzylamino}-propionic Acid]"
10,< 300 nM,"Cc1noc(-c2ccc(CN[C@H](Cc3ccccc3)C(=O)O)cc2)c1NC(=O)O[C@H](C)c1ccccc1Cl [Example 37, (R)-2-(4-{4-[(R)-1-(2-Chloro-phenyl)-ethoxycarbonylamino]-3-methyl-isoxazol-5-yl}-benzylamino)-3-phenyl-propionic Acid]"
11,< 300 nM,"Cc1noc(-c2ccc(CNC(Cc3ccccc3F)C(=O)O)cc2)c1NC(=O)OC(C)c1ccccc1Cl [Example 38, (R)-2-(4-{4-[(R)_1-(2-Chloro-phenyl)-ethoxycarbonylamino]-3-methyl-isoxazol-5-yl}-benzylamino)-3-(2-fluoro-phenyl)-propionic Acid]"
12,< 300 nM,"Cc1noc(-c2ccc(CN[C@H](Cc3ccc(C(F)(F)F)cc3)C(=O)O)cc2)c1NC(=O)O[C@H](C)c1ccccc1Cl [Example 39, (R)-2-(4-{4-[(R)-1-(2-Chloro-phenyl)-ethoxycarbonylamino]-3-methyl-isoxazol-5-yl}-benzylamino)-3-(4-trifluoromethyl-phenyl)-propionic Acid]"
13,< 300 nM,"Cc1noc(-c2ccc(CN[C@H](Cc3ccccc3Cl)C(=O)O)cc2)c1NC(=O)O[C@H](C)c1ccccc1Cl [Example 40, (R)-3-(2-Chloro-phenyl)-2-(4-{4-[(R)-1-(2-chloro-phenyl)-ethoxycarbonylamino]-3-methyl-isoxazol-5-yl}-benzylamino)-propionic Acid]"
